What was measured:
Assay in all cases: relative viability (nuclei count vs DMSO), 5 days (fraction); higher = more cells survive
NCI-H460 = test system: NCI-H460
Procedure, shortened: (§1)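 Medians of duplicate plates are given as relative viability. That measure is the nuclei count in treated wells divided by the count in vehicle wells. Counts were taken on 4× images of lung cancer cell lines in 1536-well plates, 5 days after pin-tool dosing the day after seeding with one drug alone or a fixed anchor-drug dose plus five library-drug doses (not always all listed) in √10 steps.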

SK-LU-1 = test system: SK-LU-1
Procedure, shortened: as §1

COR-L 105 = test system: COR-L 105
Procedure, shortened: as §1

EMC-BAC-2 = test system: EMC-BAC-2
Procedure, shortened: as §1

HARA = test system: HARA
Procedure, shortened: as §1

NCI-H1437 = test system: NCI-H1437
Procedure, shortened: as §1

LCLC-103H = test system: LCLC-103H
Procedure, shortened: as §1

HOP-62 = test system: HOP-62
Procedure, shortened: as §1

HCC-366 = test system: HCC-366
Procedure, shortened: as §1

NCI-H2228 = test system: NCI-H2228
Procedure, shortened: as §1

NCI-H1915 = test system: NCI-H1915
Procedure, shortened: as §1

NCI-H727 = test system: NCI-H727
Procedure, shortened: as §1

HCC-827 = test system: HCC-827
Procedure, shortened: as §1

NCI-H1792 = test system: NCI-H1792
Procedure, shortened: as §1

A-427 = test system: A-427
Procedure, shortened: as §1

CAL-12T = test system: CAL-12T
Procedure, shortened: as §1

NCI-H1755 = test system: NCI-H1755
Procedure, shortened: as §1

SW 1573 = test system: SW 1573
Procedure, shortened: as §1

NCI-H2009 = test system: NCI-H2009
Procedure, shortened: as §1

NCI-H23 = test system: NCI-H23
Procedure, shortened: as §1

Cc1sc2c(c1C)C(c1ccc(Cl)cc1)=N[C@@H](CC(=O)OC(C)(C)C)c1nnc(C)n1-2 [JQ1] + CC(C)C[C@H](NC(=O)[C@H](Cc1ccccc1)NC(=O)c1cnccn1)B(O)O [Bortezomib] (partner 0.002 µM)
relative viability (NCI-H460; first compound 0.04 µM): 1.05 | relative viability (NCI-H460; first compound 0.1265 µM): 0.611 | relative viability (NCI-H460; first compound 0.4 µM): 0.456 | relative viability (NCI-H460; first compound 1.265 µM): 0.224 | relative viability (NCI-H460; first compound 4 µM): 0.212 | relative viability (SK-LU-1; first compound 0.04 µM): 1.37 | relative viability (SK-LU-1; first compound 0.1265 µM): 0.693 | relative viability (SK-LU-1; first compound 0.4 µM): 0.941 | relative viability (SK-LU-1; first compound 1.265 µM): 0.28 | relative viability (SK-LU-1; first compound 4 µM): 0.205 | relative viability (COR-L 105; first compound 0.04 µM): 0.584 | relative viability (COR-L 105; first compound 0.1265 µM): 0.348 | relative viability (COR-L 105; first compound 0.4 µM): 0.3 | relative viability (COR-L 105; first compound 1.265 µM): 0.292 | relative viability (COR-L 105; first compound 4 µM): 0.342 | relative viability (EMC-BAC-2; first compound 0.04 µM): 1.09 | relative viability (EMC-BAC-2; first compound 0.1265 µM): 0.961 | relative viability (EMC-BAC-2; first compound 0.4 µM): 0.91 | relative viability (EMC-BAC-2; first compound 1.265 µM): 0.621 | relative viability (EMC-BAC-2; first compound 4 µM): 0.544 | relative viability (HARA; first compound 0.04 µM): 1.08 | relative viability (HARA; first compound 0.1265 µM): 0.725 | relative viability (HARA; first compound 0.4 µM): 0.611 | relative viability (HARA; first compound 1.265 µM): 0.433 | relative viability (HARA; first compound 4 µM): 0.173 | relative viability (NCI-H1437; first compound 0.04 µM): 0.42 | relative viability (NCI-H1437; first compound 0.1265 µM): 0.369 | relative viability (NCI-H1437; first compound 0.4 µM): 0.276 | relative viability (NCI-H1437; first compound 1.265 µM): 0.228 | relative viability (NCI-H1437; first compound 4 µM): 0.194 | relative viability (LCLC-103H; first compound 0.04 µM): 1.04 | relative viability (LCLC-103H; first compound 0.1265 µM): 1.01 | relative viability (LCLC-103H; first compound 0.4 µM): 1.06 | relative viability (LCLC-103H; first compound 1.265 µM): 0.557 | relative viability (LCLC-103H; first compound 4 µM): 0.439 | relative viability (HOP-62; first compound 0.04 µM): 0.447 | relative viability (HOP-62; first compound 0.1265 µM): 0.641 | relative viability (HOP-62; first compound 0.4 µM): 0.515 | relative viability (HOP-62; first compound 1.265 µM): 0.11 | relative viability (HOP-62; first compound 4 µM): 0.111 | relative viability (HCC-366; first compound 0.04 µM): 1.08 | relative viability (HCC-366; first compound 0.4 µM): 1.03 | relative viability (HCC-366; first compound 1.265 µM): 0.585 | relative viability (HCC-366; first compound 4 µM): 0.23 | relative viability (NCI-H2228; first compound 0.04 µM): 0.764 | relative viability (NCI-H2228; first compound 0.1265 µM): 0.918 | relative viability (NCI-H2228; first compound 0.4 µM): 0.609 | relative viability (NCI-H2228; first compound 1.265 µM): 0.245 | relative viability (NCI-H2228; first compound 4 µM): 0.185 | relative viability (NCI-H1915; first compound 0.04 µM): 1.02 | relative viability (NCI-H1915; first compound 0.1265 µM): 0.706 | relative viability (NCI-H1915; first compound 0.4 µM): 0.961 | relative viability (NCI-H1915; first compound 1.265 µM): 0.678 | relative viability (NCI-H1915; first compound 4 µM): 0.642 | relative viability (NCI-H727; first compound 0.04 µM): 0.756 | relative viability (NCI-H727; first compound 0.1265 µM): 1.01 | relative viability (NCI-H727; first compound 0.4 µM): 0.588 | relative viability (NCI-H727; first compound 1.265 µM): 0.38 | relative viability (NCI-H727; first compound 4 µM): 0.395 | relative viability (HCC-827; first compound 0.04 µM): 0.929 | relative viability (HCC-827; first compound 0.4 µM): 0.743 | relative viability (HCC-827; first compound 1.265 µM): 1.25 | relative viability (HCC-827; first compound 4 µM): 0.928 | relative viability (NCI-H1792; first compound 0.04 µM): 0.953 | relative viability (NCI-H1792; first compound 0.4 µM): 0.895 | relative viability (NCI-H1792; first compound 1.265 µM): 0.657 | relative viability (NCI-H1792; first compound 4 µM): 0.456 | relative viability (A-427; first compound 0.04 µM): 0.969 | relative viability (A-427; first compound 0.1265 µM): 1.04 | relative viability (A-427; first compound 0.4 µM): 0.979 | relative viability (A-427; first compound 1.265 µM): 0.682 | relative viability (A-427; first compound 4 µM): 0.474 | relative viability (CAL-12T; first compound 0.04 µM): 1.06 | relative viability (CAL-12T; first compound 0.4 µM): 0.638 | relative viability (CAL-12T; first compound 1.265 µM): 0.415 | relative viability (CAL-12T; first compound 4 µM): 0.317 | relative viability (NCI-H1755; first compound 0.04 µM): 0.923 | relative viability (NCI-H1755; first compound 0.1265 µM): 0.807 | relative viability (NCI-H1755; first compound 0.4 µM): 0.995 | relative viability (NCI-H1755; first compound 1.265 µM): 0.618 | relative viability (NCI-H1755; first compound 4 µM): 0.44 | relative viability (SW 1573; first compound 0.04 µM): 1.13 | relative viability (SW 1573; first compound 0.1265 µM): 1.03 | relative viability (SW 1573; first compound 0.4 µM): 0.863 | relative viability (SW 1573; first compound 1.265 µM): 0.582 | relative viability (SW 1573; first compound 4 µM): 0.351 | relative viability (NCI-H2009; first compound 0.04 µM): 0.947 | relative viability (NCI-H2009; first compound 0.1265 µM): 0.526 | relative viability (NCI-H2009; first compound 0.4 µM): 0.262 | relative viability (NCI-H2009; first compound 1.265 µM): 0.172 | relative viability (NCI-H2009; first compound 4 µM): 0.197 | relative viability (NCI-H23; first compound 0.04 µM): 1.07 | relative viability (NCI-H23; first compound 0.1265 µM): 0.86 | relative viability (NCI-H23; first compound 0.4 µM): 0.666 | relative viability (NCI-H23; first compound 1.265 µM): 0.241 | relative viability (NCI-H23; first compound 4 µM): 0.332

Source: the supplement of paper PMC10307832
